Measured values as given in patent publication US20230114405A1, “Microemulsion Delivery Systems for A Female Hormone Blend with Alcohol-Soluble Species Including Nonderivatized Hormones” (Quicksilver Scientific, Inc., priority 2019, published 2023).

Key:
[1] = Solubility of DHEA in ethanol and MCT oil; format: physicochemical
Source text: An alcohol-soluble species is a species that is insoluble in water and has a greater solubility in ethanol than in medium chain triglyceride (MCT) oils. […] Alcohol-soluble species are preferably pharmacologically active, more preferably are a drug or a supplement, and neither include nor are water. Thus, liquids and solids may exist that technically are soluble in alcohol, but because they also are soluble in water or more or equivalently soluble in MCT oils than in ethanol are not “alcohol-soluble species”.
Solubilized means that the alcohol-soluble species to be delivered is in the solution of the droplet. […] Thus, if either average particle diameters greater than 200 nm or precipitated crystals visible to the naked eye form, the alcohol-soluble species is not solubilized in the solution of the droplet. If an alcohol-soluble species is not solubilized in the solution, it is insoluble in the solution. In many respects, solubility may be thought of as a concentration dependent continuum. For example, the following descriptive terms may be used to express solubility of a solute in a solvent (grams solid/mL of solvent) at 25 degrees Celsius: […]

[2] = Formation of visually clear, shelf-stable MOIW microemulsions with phospholipid and polyethylene glycol derivative; format: physicochemical; conditions: used in conjunction with the phospholipid
Source text: A shelf-stable microemulsion may be determined in one of two ways. […] Either type of dissociation means that the microemulsion is not shelf-stable.
A visually clear microemulsion has an average particle diameter of 200 nm and less and lacks precipitated solid crystals visible to the naked eye.

## C[C@]12CC[C@H](O)CC1=CC[C@@H]1[C@@H]2CC[C@]2(C)C(=O)CC[C@@H]12 [DHEA, dehydroepiandrosterone (3-beta-hydroxyandrosteron-5-en-17-one)]
[1]; MCT oil
  descriptive solubility level in MCT oil: sparingly soluble
  solubility in MCT oil: approximately 10 mg/mL
[1]; ethanol
  descriptive solubility level in ethanol: freely soluble
  solubility in ethanol: approximately 150 mg/mL

## polysorbate 20
[2]
  phospholipid to polyethylene glycol derivative ratios resulting in visually clear, shelf-stable microemulsions: did not form visually clear, shelf-stable microemulsions
